Test results from US20090042905A1, “TRIAZOLE DERIVATIVES AS LIGANDS OF G-PROTEIN COUPLED RECEPTORS” (AETERNA ZENTARIS GmbH, priority 2007, published 2009).
Where two headings read alike, the source gives them in different places.

Experiments:
[1] = system: C57BL/6 male mice fed a high-fat diet; assay: Diet-induced obesity (DIO) in mice, subchronic s.c. treatment; format: in vivo, mouse; conditions: for Fat mass / Food efficiency / Lean mass / Σ Fat depots / Body weight gain / Cumulative food intake / Glucose / Insulin: 2 weeks; for Body weight gain / Cumulative food intake: difference day 35 vs day 21; for body weight gain (in words): two weeks of treatment; for Glucose / Insulin: plasma
Description: The effectiveness of selected compounds of the invention, i.e. their subchronic effects, on the energy balance of mice rendered obese by a high-fat diet was investigated.
Adult C57BL/6 male mice were fed ad libitum with either chow or a high-fat diet (60% of the calorie content from fat) for 5 weeks.
C57BL/6 mice fed with a high-fat diet readily develop obesity and represent a widely used model for investigating human obesity.
One-third of the dose was injected in the morning and two-third in the evening.
Body weight and food intake were monitored every day during the experiment. Body composition (lean and fat mass) was assessed using dual energy x-ray absorptiometry (DEXA) on day 0, 13 and 27. Blood was also sampled at sacrifice for the determination of plasma glucose, insulin and triglycerides.

[2] = system: differentiated 3T3-L1 cells; assay: Inhibition of isoproterenol-induced lipolysis by QRFP, and its antagonism by compounds, in an adipocyte cell line model (glycerol release); format: cell-based, mouse; conditions: for IC50 of QRFP-26 (inhibition of isoproterenol-induced lipolysis), shifted in presence of compound: 100 nM isoproterenol; for effect on the inhibitory effect of QRFP on isoproterenol-induced lipolysis: compound at 10^−9 to 10^−7 M
Description: The effectiveness of compounds of the invention to antagonize the QRFP-induced inhibition of isoproterenol-induced lipolysis was investigated using an adipocyte cell line model.
Cells were then were maintained in DMEM with 10% FBS for 2 days before lipolysis study.
All the cellular assays were performed in triplicate for each time point if not otherwise specified.
Differentiated 3T3-L1 cells were first washed with DMEM and incubated with DMEM containing 200 nM adenosine for 1 h at 37° C. The incubation medium was then removed. The lipolysis was induced by incubating the cells with DMEM supplemented with 2% bovine serum albumin fatty acid free and adenosine deaminase (1 U/mL) containing 100 nM of isoproterenol for 90 min at 37° C. The incubation medium (600 μL) was collected for glycerol assay following triglyceride hydrolysis.
After the incubation period, the incubation medium (600 μL) was collected for free glycerol measurement.
To document the antagonistic effect of compounds of the invention on the antilipolytic effect of QRFP, the dose-response curve of QRFP was carried out as described above in presence of selected compounds of the invention at 10^−9 to 10^−7 M. To document the net effect of QRFP and selected compounds of the invention on lipolysis induced by isoproterenol as control, cells were incubated in absence of isoproterenol in presence of QRFP or selected compounds of the invention at 10^−6 M.
Glycerol released was calculated as μmol/mg of total protein.
Lipolysis index was calculated as: (μmol of glycerol released/mg of protein of sample minus μmol of glycerol released/mg of protein in basal condition)/(μmol of glycerol released/mg of protein induced by 100 nM of isoproterenol minus μmol of glycerol released/mg of protein of basal condition).

male C57BL/6J mice [3] = assay: Fasting-induced feeding behavior (food intake) of mice; format: in vivo; conditions: po
male C57BL/6J mice [4] = assay: as above; format: in vivo; conditions: oral dose 2 μmol per mouse, 30 min before food
Description: The effectiveness of selected compounds of the invention on fasting-induced feeding behavior of mice was investigated.
The experiments were performed according to Asakawa A et al. (Asakawa A et al., Gut 2003, 52: 947-952) with the following technical details:
Preparation of compounds of the invention: dissolved in dimethylsulfoxide (DMSO) and then diluted in distilled water (i.e. 0.5, 1 and 10% DMSO for 0.5, 1 and 2 μmol/mouse, respectively);
Preparation of reference substance (positive control) sibutramine: dissolved in distilled water;
Control substance (negative vehicle control): 10% DMSO in distilled water (compounds of the invention); distilled water (sibutramine);
Route of administration: p.o.;
Pretreatment time: 30 min before presenting the food to the animals;
Volume of administration: 0.5 ml/mouse;
Animals: male C57BL/6J mice;
Body weight range: 18.3-21.4 g

[5] = 6 mg/kg per day and 24 mg/kg per day
[6] = 20 min, read-out: change of food intake - compounds versus vehicle treated negative control, at 20 min
[7] = 1 h, read-out: change of food intake - compounds versus vehicle treated negative control, at 1 h
[8] = 2 h, read-out: change of food intake - compounds versus vehicle treated negative control, at 2 h
[9] = 4 h, read-out: change of food intake - compounds versus vehicle treated negative control, at 4 h

Row | Compound | Fat mass ([1]; 1.5 mg/kg per day s.c.) [g] | Food efficiency ([1]; 1.5 mg/kg per day s.c.) [mg/kJ] | Lean mass ([1]; 1.5 mg/kg per day s.c.) [g] | Σ Fat depots ([1]; 1.5 mg/kg per day s.c.) [mg] | Body weight gain ([1]; 1.5 mg/kg per day s.c.) [g] | Cumulative food intake ([1]; 1.5 mg/kg per day s.c.) [kJ] | body weight gain (in words) [1, 5] | Fat mass ([1]; 6.0 mg/kg per day s.c.) [g] | Food efficiency ([1]; 6.0 mg/kg per day s.c.) [mg/kJ] | Lean mass ([1]; 6.0 mg/kg per day s.c.) [g] | Σ Fat depots ([1]; 6.0 mg/kg per day s.c.) [mg] | Body weight gain ([1]; 6.0 mg/kg per day s.c.) [g] | Cumulative food intake ([1]; 6.0 mg/kg per day s.c.) [kJ] | Fat mass ([1]; 24 mg/kg per day s.c.) [g] | Food efficiency ([1]; 24 mg/kg per day s.c.) [mg/kJ] | Lean mass ([1]; 24 mg/kg per day s.c.) [g] | Σ Fat depots ([1]; 24 mg/kg per day s.c.) [mg] | Body weight gain ([1]; 24 mg/kg per day s.c.) [g] | Cumulative food intake ([1]; 24 mg/kg per day s.c.) [kJ] | Glucose ([1]; 1.5 mg/kg per day s.c.) [mmol/L] | further results
1 | CC(C)(N)C(=O)N[C@H](Cc1c[nH]c2ccccc12)c1nnc(CCCc2c[nH]c3ccccc23)n1Cc1ccccc1 [Compound 9, (R)-N-(1-(5-(3-(1H-indol-3-yl)propyl)-4-benzyl-4H-1,2,4-triazol-3-yl)-2-(1H-indol-3-yl)ethyl)-2-amino-2-methylpropanamide] | 7.9 | 1.30 | 20.2 | 1137 | 1.03 | 793 | significantly decreased | 5.8 | 0.25 | 21.2 | 791 | 0.20 | 809 | 5.7 | -0.68 | 20.5 | 792 | -0.54 | 790 | 14.9 | size of the fat depots (in words) [1, 5]: reduced; Insulin ([1]; 1.5 mg/kg per day s.c.): 63.8 pmol/L; Glucose ([1]; 6.0 mg/kg per day s.c.): 15.6 mmol/L; Insulin ([1]; 6.0 mg/kg per day s.c.): 57.4 pmol/L; Glucose ([1]; 24 mg/kg per day s.c.): 13.1 mmol/L; Insulin ([1]; 24 mg/kg per day s.c.): 52.0 pmol/L
2 | COc1ccc(Cn2c(CCc3ccccc3)nnc2[C@@H](Cc2c[nH]c3ccccc23)NC(=O)c2ccccn2)cc1 [Compound 79, (R)-N-(1-(4-(4-methoxybenzyl)-5-phenethyl-4H-1,2,4-triazol-3-yl)-2-(1H-indol-3-yl)ethyl)picolinamide] |  |  |  |  |  |  |  |  |  |  |  |  |  |  |  |  |  |  |  |  | IC50 of QRFP-26 (inhibition of isoproterenol-induced lipolysis), shifted in presence of compound ([2]; compound at 10^−7 M): 124.4 nM; IC50 of QRFP-26 (inhibition of isoproterenol-induced lipolysis), shifted in presence of compound ([2]; compound at 10^−9 M): 2.829 nM; effect on the inhibitory effect of QRFP on isoproterenol-induced lipolysis [2]: antagonist effect
3 | CC(C)(N)C(=O)N[C@H](Cc1c[nH]c2ccccc12)c1nnc(Cc2ccccc2)n1Cc1ccccn1 [Compound 39, (R)-N-(1-(5-benzyl-4-(pyridin-2-ylmethyl)-4H-1,2,4-triazol-3-yl)-2-(1H-indol-3-yl)ethyl)-2-amino-2-methylpropanamide] |  |  |  |  |  |  |  |  |  |  |  |  |  |  |  |  |  |  |  |  | IC50 of QRFP-26 (inhibition of isoproterenol-induced lipolysis), shifted in presence of compound ([2]; compound at 10^−7 M): 6.9 nM; IC50 of QRFP-26 (inhibition of isoproterenol-induced lipolysis), shifted in presence of compound ([2]; compound at 10^−8 M): 6.6 nM; IC50 of QRFP-26 (inhibition of isoproterenol-induced lipolysis), shifted in presence of compound ([2]; compound at 10^−9 M): 5.6 nM; effect on the inhibitory effect of QRFP on isoproterenol-induced lipolysis [2]: non-competitive antagonist effect
4 | CC(C)CC(N(C)C)C1(c2ccc(Cl)cc2)CCC1 (stereo not drawn) [Sibutramine, 1-(4-chlorophenyl)-N,N-dimethyl-alpha-(2-methylpropyl)-cyclobutane-methanamine] |  |  |  |  |  |  |  |  |  |  |  |  |  |  |  |  |  |  |  |  | change in vivo at 0.6 µmol/mouse (male C57BL/6J mice [3]; [6]): -63%; change in vivo at 0.6 µmol/mouse (male C57BL/6J mice [3]; [7]): -66%; change in vivo at 0.6 µmol/mouse (male C57BL/6J mice [3]; [8]): -46%; change in vivo at 0.6 µmol/mouse (male C57BL/6J mice [3]; [9]): -21%
5 | COc1ccc(Cn2c(CCc3ccccc3)nnc2[C@@H](Cc2c[nH]c3ccccc23)NC(=O)CN)cc1 [Compound 50, (R)-N-(1-(4-(4-methoxybenzyl)-5-phenethyl-4H-1,2,4-triazol-3-yl)-2-(1H-indol-3-yl)ethyl)-2-aminoacetamide] | 7.6 | 1.88 | 21.3 | 1101 | 1.61 | 852 | significantly decreased | 8.2 | 1.77 | 20.4 | 1192 | 1.44 | 813 | 6.3 | -0.05 | 20.6 | 902 | -0.04 | 801 | 15.6 | change in vivo at 2 µmol/mouse (male C57BL/6J mice [4]; [6]): -54%; change in vivo at 2 µmol/mouse (male C57BL/6J mice [4]; [7]): -44%; change in vivo at 2 µmol/mouse (male C57BL/6J mice [4]; [8]): -44%; change in vivo at 2 µmol/mouse (male C57BL/6J mice [4]; [9]): -28%; size of the fat depots (in words) ([1]; 24 mg/kg per day): reduced; Insulin ([1]; 1.5 mg/kg per day s.c.): 66.3 pmol/L; Glucose ([1]; 6.0 mg/kg per day s.c.): 15.2 mmol/L; Insulin ([1]; 6.0 mg/kg per day s.c.): 64.8 pmol/L; Glucose ([1]; 24 mg/kg per day s.c.): 15.4 mmol/L; Insulin ([1]; 24 mg/kg per day s.c.): 60.3 pmol/L
